Values quoted from earlier work in US20090325943A1, “VETERINARY PHARMACEUTICAL COMPOSITIONS FOR THE TREATMENT OF PAIN AND INFLAMMATION” (priority 2006, published 2009).

Experiments:
[1] = dog, regardless of the administration route

For `COc1cccc(C2(O)CCCCC2CN(C)C)c1` (stereo not shown) [tramadol], the “bond with the plasma proteins” value (6 animal species) is given as “modest”, the “peak plasma concentration (time to peak)” value (6 animal species) is given as at most 2 h and the absorption (administered by the i.m. route) is given as “almost total”. For the same molecule, the “half-life (elimination mainly by the renal route)” value [1] was “approx. 2.5 hours”.
